In patent publication EP2140864A2 (H. Lundbeck A/S, priority 2001, dated 2002):
Where two headings read alike, the source gives them in different places.

Tests used:
human 5HT1B = target: T1, human 5HT1B (Homo sapiens, UniProt P28222); assay: Radioligand binding, 5HT1B receptor ([3H]-serotonin)
T1 construct: expressed in transfected cells
Experimental: Human 5HT1B, 5HT1D, 5HT1E, 5HT1F, and 5HT7 Receptors: The cell lysates of LM(tk-) clonal cell line stably transfected with the genes encoding each of these 5HT receptor-subtypes were prepared as described above. Cell membranes were suspended in 50mM Tris-HCl buffer (pH 7.4 at 37°C) containing 10 mM MgCl2, 0.2 mM EDTA, 10 µM pargyline, and 0.1% ascorbate. […] Nonspecific binding was determined in the presence of 10 µM serotonin. The bound radioligand was separated by filtration through GF/B filters using a cell harvester.
(§1) Binding data were analyzed using nonlinear regression and statistical techniques available in the GraphPAD Prism package (San Diego, CA). Enzymatic assay data were derived from a standard curve of reference compound data.

human 5HT1A receptor = target: T2, human 5HT1A receptor (Homo sapiens, UniProt P08908); assay: Radioligand binding, 5-HT1A receptor (3H-8-OH-DPAT)
T2 construct: expressed in transfected cells; host or cells: COS-7 cells, transient (pCEXV-3 vector)
T2 sequence (P08908 1-422): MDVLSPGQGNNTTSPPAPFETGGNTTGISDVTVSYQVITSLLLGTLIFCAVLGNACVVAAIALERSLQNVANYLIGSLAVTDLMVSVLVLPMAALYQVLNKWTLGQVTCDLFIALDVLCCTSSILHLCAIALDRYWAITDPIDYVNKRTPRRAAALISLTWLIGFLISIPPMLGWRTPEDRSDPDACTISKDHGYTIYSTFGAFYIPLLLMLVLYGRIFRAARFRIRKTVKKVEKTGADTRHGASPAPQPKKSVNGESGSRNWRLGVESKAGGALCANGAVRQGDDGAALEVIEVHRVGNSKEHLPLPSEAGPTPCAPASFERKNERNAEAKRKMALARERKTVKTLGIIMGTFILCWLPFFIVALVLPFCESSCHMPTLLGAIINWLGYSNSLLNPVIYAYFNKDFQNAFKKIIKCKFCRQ
Experimental: 5-HT1A Receptor: The cDNA corresponding to the 5-HT1A receptor open reading frames and variable non-coding 5'-and 3'-regions, was cloned into the eukaryotic expression vector pCEXV-3. These constructs were transfected transiently into COS-7 cells by the DEAE-dextran method (Cullen, 1987), and harvested after 72 hours. Radioligand binding assays were performed as described above for the 5-HT2A receptor, except that ^3H-8-OH-DPAT was used as the radioligand and nonspecific binding was determined by the addition of 10 µM mianserin.
as §1

[1] = target: T3, human α1D adrenergic receptor (Homo sapiens, UniProt P25100); assay: Radioligand binding, α1D adrenergic receptor
T3 construct: expressed in transfected cells
T3 sequence (P25100 1-572): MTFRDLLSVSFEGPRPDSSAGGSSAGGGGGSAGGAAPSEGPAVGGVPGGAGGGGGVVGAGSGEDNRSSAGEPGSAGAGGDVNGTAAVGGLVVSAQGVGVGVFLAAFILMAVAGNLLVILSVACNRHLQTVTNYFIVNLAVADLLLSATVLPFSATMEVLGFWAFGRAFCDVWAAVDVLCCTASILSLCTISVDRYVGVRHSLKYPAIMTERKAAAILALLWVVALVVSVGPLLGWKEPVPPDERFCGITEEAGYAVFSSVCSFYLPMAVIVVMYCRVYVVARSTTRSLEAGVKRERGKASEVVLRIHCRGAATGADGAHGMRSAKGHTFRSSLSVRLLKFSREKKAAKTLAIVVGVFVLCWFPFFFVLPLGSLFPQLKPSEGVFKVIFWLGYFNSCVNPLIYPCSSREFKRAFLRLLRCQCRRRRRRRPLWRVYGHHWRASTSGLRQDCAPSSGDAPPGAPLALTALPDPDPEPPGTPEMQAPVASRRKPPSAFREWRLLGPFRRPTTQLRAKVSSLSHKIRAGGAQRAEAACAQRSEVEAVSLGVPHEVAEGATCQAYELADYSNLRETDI
Text: (§2) Other receptors: Cell membranes expressing human dopamine D1, D2, D4 and rat D3 receptors were purchased through BioSignal, Inc. (Montreal, Canada). Binding assays using the histamine H1 receptor; dopamine receptors; and α1A, α1E, and α2 adrenergic receptors may be carried out according to the procedures described in U.S. Patent No. 5,780,485, the disclosure of which is hereby incorporated by reference in its entirety into this application. Binding assays using the dopamine D5 receptor may be carried out according to the procedures described in U.S. Patent No. 5,882,855, the disclosure of which is hereby incorporated by reference in its entirety into this application. Binding assays for the human α1D adrenergic receptor may be carried out according to the procedures described in U.S. Patent No. 6,156,518, the disclosure of which is hereby incorporated by reference in its entirety into this application.
as §1

human α2C adrenoceptor = target: T4, human α2C adrenoceptor (Homo sapiens, UniProt P18825); assay: Radioligand binding, α2C adrenergic receptor
T4 construct: expressed in transfected cells
T4 sequence (P18825 1-462): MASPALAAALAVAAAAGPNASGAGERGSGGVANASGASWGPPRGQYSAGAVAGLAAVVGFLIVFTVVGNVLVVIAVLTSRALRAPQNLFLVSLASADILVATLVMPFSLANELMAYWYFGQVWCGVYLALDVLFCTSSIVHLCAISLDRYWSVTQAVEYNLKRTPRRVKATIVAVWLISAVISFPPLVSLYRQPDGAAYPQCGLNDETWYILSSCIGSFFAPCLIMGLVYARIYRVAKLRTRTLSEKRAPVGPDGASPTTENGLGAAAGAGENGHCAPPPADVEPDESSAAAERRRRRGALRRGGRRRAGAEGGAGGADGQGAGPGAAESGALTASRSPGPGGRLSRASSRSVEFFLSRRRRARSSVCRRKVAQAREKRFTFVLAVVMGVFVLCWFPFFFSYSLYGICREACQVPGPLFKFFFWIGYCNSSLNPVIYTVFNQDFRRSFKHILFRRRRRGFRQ
Text: as §2, §1

human 5HT4 receptor = target: T5, human 5HT4 receptor (Homo sapiens, UniProt Q13639); assay: Radioligand binding, 5-HT4 receptor
T5 construct: expressed in transfected cells
Experimental: Other 5-HT Receptors: Other serotonin receptor binding assays were performed according to published methods: rat 5HT2C receptor (Julius et al., 1988); and 5-HT6 (Monsma, et al., 1993). The binding assays using the 5-HT4 receptor were performed according to the procedures described in U.S. Patent No. 5,766,879, the disclosure of which is hereby incorporated by reference in its entirety into this application.
as §1

human dopamine D1 = target: T6, human dopamine D1 (Homo sapiens, UniProt P21728); assay: Radioligand binding, dopamine D1 receptor
T6 construct: purchased BioSignal, Inc. (Montreal, Canada); host or cells: membranes of cells expressing the receptor
Text: as §2, §1

[2] = Table 8; Ki h5HT1B divided by Ki hGAL3
[3] = Table 8; Ki h5HT1A divided by Ki hGAL3
[4] = Table 10; Ki hα1D divided by Ki hGAL3
[5] = Table 10; Ki hα2C divided by Ki hGAL3
[6] = Table 8; Ki h5HT4 divided by Ki hGAL3
[7] = Table 10; Ki hD1 divided by Ki hGAL3

T6 sequence (P21728 whole entry): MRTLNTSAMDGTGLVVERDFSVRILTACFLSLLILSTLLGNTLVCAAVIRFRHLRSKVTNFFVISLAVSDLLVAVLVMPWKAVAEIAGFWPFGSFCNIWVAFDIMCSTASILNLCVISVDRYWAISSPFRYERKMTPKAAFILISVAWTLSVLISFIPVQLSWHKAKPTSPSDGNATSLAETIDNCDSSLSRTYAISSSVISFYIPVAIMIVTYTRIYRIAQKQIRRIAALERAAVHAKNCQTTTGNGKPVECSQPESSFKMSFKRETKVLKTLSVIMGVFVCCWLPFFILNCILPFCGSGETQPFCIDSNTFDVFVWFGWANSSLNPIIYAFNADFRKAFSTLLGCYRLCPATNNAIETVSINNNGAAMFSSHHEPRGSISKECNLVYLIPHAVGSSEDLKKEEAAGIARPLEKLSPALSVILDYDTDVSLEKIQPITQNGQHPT
T1 sequence (P28222 whole entry): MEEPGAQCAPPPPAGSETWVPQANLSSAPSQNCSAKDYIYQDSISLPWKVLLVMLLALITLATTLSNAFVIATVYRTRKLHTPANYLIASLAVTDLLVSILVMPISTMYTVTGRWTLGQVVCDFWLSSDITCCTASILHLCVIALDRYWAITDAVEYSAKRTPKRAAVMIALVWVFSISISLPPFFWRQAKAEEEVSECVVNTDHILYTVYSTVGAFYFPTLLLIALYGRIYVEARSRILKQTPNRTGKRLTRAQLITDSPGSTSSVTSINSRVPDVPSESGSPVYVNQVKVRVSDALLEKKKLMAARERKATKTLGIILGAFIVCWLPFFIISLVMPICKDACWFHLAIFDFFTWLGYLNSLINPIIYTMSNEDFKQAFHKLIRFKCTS
T5 sequence (Q13639 whole entry): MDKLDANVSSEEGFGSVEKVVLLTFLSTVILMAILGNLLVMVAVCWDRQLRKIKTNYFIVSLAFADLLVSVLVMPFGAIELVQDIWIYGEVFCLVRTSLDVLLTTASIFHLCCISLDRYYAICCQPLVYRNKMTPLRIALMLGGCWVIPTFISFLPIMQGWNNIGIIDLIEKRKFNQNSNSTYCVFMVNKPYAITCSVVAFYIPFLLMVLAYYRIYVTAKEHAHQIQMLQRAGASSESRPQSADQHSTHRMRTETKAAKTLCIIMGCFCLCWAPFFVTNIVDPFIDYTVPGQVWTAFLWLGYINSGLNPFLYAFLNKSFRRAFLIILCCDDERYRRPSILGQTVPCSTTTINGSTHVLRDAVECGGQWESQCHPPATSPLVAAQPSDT

Row | SMILES | Ki (human 5HT1B; Table 7; read-out: h5HT1B Ki) [nM] | selectivity ratio h5HT1B (human 5HT1B; [2]) | Ki (human 5HT1A receptor; Table 7; read-out: h5HT1A Ki) [nM] | selectivity ratio h5HT1A (human 5HT1A receptor; [3]) | Ki ([1]; Table 9; read-out: hα1D Ki) [nM] | selectivity ratio hα1D [1, 4] | Ki (human α2C adrenoceptor; Table 9; read-out: hα2C Ki) [nM] | selectivity ratio hα2C (human α2C adrenoceptor; [5]) | Ki (human 5HT4 receptor; Table 7; read-out: h5HT4 Ki) [nM] | selectivity ratio h5HT4 (human 5HT4 receptor; [6]) | Ki (human dopamine D1; Table 9; read-out: hD1 Ki) [nM] | selectivity ratio hD1 (human dopamine D1; [7]) | Ki (human 5HT1B; read-out: h5HT1B Ki; Table 7) [nM] | Ki (human 5HT1A receptor; read-out: h5HT1A Ki; Table 7) [nM] | Ki ([1]; read-out: hα1D Ki; Table 9) [nM] | Ki (human α2C adrenoceptor; read-out: hα2C Ki; Table 9) [nM] | Ki (human 5HT4 receptor; read-out: h5HT4 Ki; Table 7) [nM] | Ki (human dopamine D1; read-out: hD1 Ki; Table 9) [nM]
1 | O=C1C(=Nc2cccc(Cl)c2)c2ccccc2N1c1ccccc1 [Example 94, 3-[(3-CHLOROPHENYL)IMINO]-1-PHENYL-1,3-DIHYDRO-2H-INDOL-2-ONE] | 3350 | >30 | > 50000 | >100 | 4030 | >30 | 47900 | >100 | 4120 | >30 | 2150 | >30 |  |  |  |  |  | 
2 | COc1cccc(Nc2cc(N3CCCCC3)nc(N(C)CCc3c[nH]c4ccccc34)n2)c1 [Example 17] | 407 | 5 | 3480 | >30 | 221 | 3 | 10300 | >100 | 2610 | 30 | 516 | 6 |  |  |  |  |  | 
3 | Cc1ccc(Nc2cc(N3CCCCC3)nc(N(C)CCc3ccccc3)n2)cc1 [Example 22] | 1980 | >30 | 9710 | >100 | 368 | 13 | 2740 | >100 | 2460 | >30 | 128 | 5 |  |  |  |  |  | 
4 | O=C1C(=Nc2ccc(Br)cc2)c2ccccc2N1c1ccccc1 [Example 98, 3-[(4-BROMOPHENYL)IMINO]-1-PHENYL-1,3-DIHYDRO-2H-INDOL-2-ONE] | 2420 | >30 | 24600 | >100 | 1890 | >30 | > 50000 | >100 | 1210 | >30 | 2520 | >30 |  |  |  |  |  | 
5 | COC[C@@H]1[C@@H](c2ccccc2)OCCN1c1nc(Nc2ccc(C)cc2)cc(N2CCCCC2)n1 [Example 49] |  | >30 |  | >100 |  | 3 |  | >30 |  | >30 |  | 18 | 8450 | 29200 | 678 | 9240 | 13200 | 3780
